Data taken from patent US7049321B2, “Methods and pharmaceutical compositions for treatment of central and peripheral nervous system disorders and compounds useful therefor” (Israel Institute for Biological Research, priority 2002, dated 2006).

Assays:
Protein binding, PBS = type: in vitro ADME; details: 10 μM
Protocol: Protein binding studies were carried out in human plasma, α1-glycoprotein, human serum albumin (HSA), and Dulbecco's Phosphate Buffered Saline (PBS). AF292 was added to a final concentration of 10 μM. […] (μM) and in human […] (AGP), (see Table 1).

[1] = tested on: Isolated Guinea Pig Right Atrium; assay: Isolated guinea pig right atrium
Protocol: • 1. Astemizole (human ether-a-go-go related gene (HERG) Channel) Binding Assay. […] Isolated Guinea Pig Right Atrium (atrial fibrillation). […] Effects of AF292 (dose 5 mg/kg orally) on cardiac electrophysiological, cardio-haemodynamic in instrumented, awake dogs. Healthy trained and chronically instrumented female Beagle dogs of varying age and ranging in body weight from 9.4 to 12 kg, were used for recording of the cardiovascular parameters: heart rate, diastolic and systolic blood pressure, pressure rate product, LV dp/dt max, LV dp/dt max/pd, LV dp/dt min, cardiac output, stroke volume, systemic vascular resistance and the ECG parameters (PQ-, QRS-, QT-, QTcBazett-(QTcB), QTcFridericia-(QTcF) and QTcVan de Water-(QTcVdW) interval duration and QT-dispersion. During the last 18 hours prior to the experiments, the dogs had no access to food. Water was available ad libitum. At the beginning of each experiment, control values of the various parameters were recorded for at least 30 min. Thereafter, 5 mg/kg of AF292 (n=4) or the corresponding volume of the solvent (n=4) was administered orally by gavage. The various haemodynamic parameters were recorded continuously for 4 hours thereafter.

AF64A-injected rats [2] = assay: Passive avoidance in AF64A-treated rats; details: for Retention latency: 72 h after training; for Minimal effective dose: p.o.
C57BL6J mice = assay: Morris water maze in normal hippocampus mice; type: in vivo; details: for Training, escape latency: 0.5 and 1 mg/kg i.p. (rivastigmine, nicotine 1 mg/kg); for Training, path length: AF150(S) only the higher dose; for Reversal test, swimming speed: AF150(S)-0.5 mg/kg, AF267B-1 mg/kg, rivastigmine, nicotine
Protocol: Each group of mice was randomly divided into 7 treatment groups (n=12-14/group). […] All tested compounds and saline were administered once a day for 4 days before starting the behavioral testing, and then for the duration of the 5-day experiment, 30 minutes before testing.
Training: Each mouse was trained for four consecutive days, four trials (one block) per day, in which the platform position remained constant and was located in the center of the southeast quadrant of the pool. Within each block of four trials, each mouse started at each of the starting locations, but the sequence of locations was randomly selected. A trial consisted of placing a mouse by hand into the water facing the wall of the pool at one of four starting locations, north, south, east or west, around the pool's perimeter. Escape latency (the time to find the platform), path length (the distance traveled by the mouse) and speed (the swimming rate of the mouse) were recorded on each trial by the monitoring system.
For each mouse, the path length, escape latency, and swimming speed of the four trials on each of the 4 training days were grouped into blocks (one block for each day). […] Specific comparisons were performed, using the simple main effects contrasts acalysis, which is specifically suited for testing significant interactions.
Transfer test. During trial No. 17, on the fourth day, the platform was entirely removed from the pool (a probe trial). In this trial, the mouse was placed into the water for a limited period (30 s), and its spatial bias was measured by recording the relative distribution of escape latency and path length over the four quadrants of the pool.
Reversal test. During trials 18–21, on the fifth day, the platform position was changed to the northwest quadrant, opposite to the training quadrant. Thus, during reversal learning, the platform location was moved relative to the configuration of objects within the room, but the pool occupied the same place within the room throughout the entire experiment. Testing of the rats and measures taken were the same as in training.
For each mouse, the escape latency, path length and swimming speed of the reversal test (trials No. 18–21) were grouped into one block.

[3] = pKa and free-base fraction of AF267B; details: pH=7.35 of CSF, calculated from pKa
Protocol: This calculation was based on the brain weight (2 gr) vs. total plasma volume (14 ml).

AF64A-injected rats [4] = assay: Morris water maze in AF64A-injected rats; type: in vivo, Sprague-Dawley rats
Protocol: AF64A or saline-injected (6 months old) Sprague-Dawley rats were tested in the Morris Water Maze (MWM) task. The paradigm used assesses spatial learning abilities in a reference memory regimen, and involves training (days 1–4), transfer test (Probe trial—day 4, 3 min following the last training trial) and reversal test (day 5).
Drugs and PBS were administered once a day for 5 days before starting the behavioral testing, and then for the duration of the 5-day experiment, 30 min before testing.
The three measures, escape latency, path length and swimming speed were analyzed by MANOVA, followed by simple main effects contrast analysis.

naive rats = assay: Social memory (olfactory recognition) in naive rats; type: in vivo, Wistar rats; details: 0.5, 1 and 5 mg/kg, p.o.
Protocol: 12 Male Wistar rats, 400–530 gr (4–5 months old) were used. Rats were housed individually 14 days before testing. Juvenile Wistar rats 40–50 gr (at arrival) were kept in groups of 6 and served as social stimuli for the adult rats. Animals were kept at 21° C.±1, with an inverse light-dark cycle (light on from 2:00 P.M. to 2:00 A.M.). The sessions were conducted 7 hr into the dark part of the light/dark cycle, under red illumination.
Adult rats were placed in a dim illumination room 1.5 h before the beginning of the social test. All juveniles were isolated in cages for 30 min prior to the beginning of the experiment. At the beginning of testing, an unfamiliar juvenile rat was placed in the home cage of an adult rat for 5 min. The time spent by the adult rat in investigating the juvenile rat was recorded. The adult rat was then immediately (1–2 min) treated with vehicle or test compound. Two hours later, the same juvenile was presented to the same adult rat for another 5 min period, a time when normally the stimulus juvenile is no longer identified (i.e., the adult rat investigates the juvenile for the same amount of time as during the first presentation). […]
Time spent in social investigation of stimulus juvenile rat was measured (in sec) and then expressed for each animal as the ratio of the second exposure to the first exposure (Ratio of Investigation Duration (RID)). […]

SMILES	Protein Binding (Protein binding, PBS)	Minimal effective dose (AF64A-injected rats [2])	Training, escape latency (C57BL6J mice)	Training, path length (C57BL6J mice)	Reversal test, swimming speed (C57BL6J mice)	Training, swimming speed (C57BL6J mice; mouse, in vivo)	Investigation time of the same juvenile (RID) (naive rats)	other results
CC[C@@H]1SC2(CCNCC2)NC1=O [AF292, (S)-2-Ethyl-1-thia-4,8-diaza-spiro[4.5]decan-3-one]	0% and PBS = 0%	below 1 mg/kg						Contractile force [1]: no significant effect on contractile force; Contractile rate [1]: tended to slightly reduce the contractile rate; Retention latency (AF64A-injected rats [2]; 1mg/kg p.o.): 447 ± 46.8 s
CC[C@@H]1SC2(CCN(C)CC2)NC1=O [AF267B, (S)-2-ethyl-8-methyl-1-thia-4,8-diaza-spiro[4.5]decan-3-one]	PBS = 0%	less than 0.1 mg/kg	did not significantly affect	neither AF267B nor rivastigmine had any effect	significantly decreased	no such effect	decreased the investigation time	% of compound in free base form [3]: 26.2%; Reversal test (AF64A-injected rats [4]; 1 mg/kg): tendency for improvement; Training, escape latency (AF64A-injected rats [4]; 1 mg/kg): tendency for improvement; Reversal test (AF64A-injected rats [4]; 3 mg/kg): tendency for impairment; Training performance (AF64A-injected rats [4]; 3 mg/kg): tended to impair performance; Learning (training) (AF64A-injected rats [4]; 0.3, 1, 3 mg/kg po): no significant effect on learning; Probe trial, spatial bias (escape latency) (AF64A-injected rats [4]; all doses): complete spatial bias; Retention latency (AF64A-injected rats [2]; 0.03 mg/kg p.o.): 105.7 ± 31.9 s; Retention latency (AF64A-injected rats [2]; 0.1 mg/kg p.o.): 440.7 ± 46.4 s
CC1=NCC2(CCN(C)CC2)S1 [AF150(S), 2,8-Dimethyl-1-thia-3,8-diaza-spiro[4.5]dec-2-ene]			increased the escape latencies	impaired the path length	significantly decreased	impaired the swimming speed	decreased the investigation time	Reversal test, escape latency (C57BL6J mice; AF150(S) 0.5 mg/kg): impaired the escape latency; Transfer test, spatial bias (C57BL6J mice; mouse, in vivo): partial spatial bias
